From patent publication US5349127A, “Expression of herbicide metabolizing cytochromes P450” (priority 1992, dated 1994)

How the values were obtained:
[1] = test system: leaves of transformed tobacco; assay: Metabolism of 10001 in excised tobacco leaves (Example 20); type: in vitro ADME, Nicotiana tabacum; settings: plants transformed with pSSU-SU111 and pCab-SU131, 21 hours
Experimental: Plants were grown from tobacco seed produced by self-pollinated transformed plants in Metro-Mix® 350 under 16 hour light (light intensity of 400 μEinsteins per second per square meter at pot level, 22° C. and 80% relative humidity) followed by 8 hours of dark (18° C. and 70 to 80% relative humidity) and watered three times daily with half strength Hoagland's solution. The presence of the cytochrome P450 protein in individual plants was confirmed by Western blot analysis before testing for sulfonylurea metabolism.
During growth, the tobacco plants produced leaves attached to the main stalk, none of which were of the same age or size. […]
Individual leaves were extracted with 30 ml acetone/water (80%/20% by volume) for 1 minute in a Sorvall® Omni-Mixer. […] 10015 and its metabolites were detected at 254 nm while ^14 C-10001 and its metabolites were detected with a Radiomatic Flo-One® detector. A diode array detector was used in separate experiments to obtain the absorbance spectra of the 10015 metabolite and an 10014 standard in the HPLC analysis of several extracts (HPLC method is described in Romesser et al., Biochem. Biophys. Res. Comm., 140:650-659 (1986)). Comparison of the metabolite absorbance spectrum with that of the 10014 confirmed the metabolite's identity. […]

[2] = test system: Tomato seedlings (Lysopersicon esculentum cv. Pixie); assay: Tomato transplants in sulfonylurea-treated soil after dipping in water, YEME or S. lividans culture (Example 13); type: in vivo; settings: for Mean value of visual ratings / Visual Injury Ratings of individual transplanted tomatoes: 19 DAT
Experimental: A 2 liter culture of S. lividans pCAO200SU1-FeS-B#9 was grown in YEME medium at 30° C. until the culture was in […] log phase of growth and the absorbance in a spectrophotometer at a wavelength of 600 nm was between about 1.0 and 1.3. Tomato seedlings (Lysopersicon esculentum cv. "Pixie") were seeded directly into soiless media, Oasis Wedges® (Smithers-Oasis, Kent, Ohio), fertilized with 500 ppm Peters'® fertilizer (20:19:18); and 300 ppm of iron was added weekly. As the tomato plants develop, roots ramify through the Oasis Wedges®. The tomato plants were transplanted to pots when they were 4 inches tail as follows.
Five inch standard round pots (without holes) were filled with Sassafras sandy loam (pH 6.7, 0.8% OM) and an oasis cube. The contents of the each pot was sprayed, prior to transplanting the tomato plants, with either 10001, in 25% dry flowable composition (25 DF) or 10010, 75 DF at rates of 16, 32, 64, 125 or 250 grams of active ingredient per hectare (g ai/ha). The Oasis cube was then removed and replaced by another containing a transplant tomato plant dipped in either water (treatment A), YEME medium (treatment B)-or the culture of S. lividans pCAO200SU1-FeS-B#9 described above (treatment C). Six transplant tomato plants received each of the three treatments, and five transplant tomato plants (to serve as controls) received no treatment. The resulting tomato plants were grown in a greenhouse for 19 days and watered twice daily, after which they were evaluated for visual injury (100=complete kill, other numbers=percentage of injury relative to controls [subjectively determined], 0=no injury) with respect to the water dipped, no-herbicide control treatments. The plants were left in the greenhouse for one more week after which the fresh weights of the shoots of the plants were determined. The roots of the plants which received these treatments and controls were examined too.

[3] = 16 g ai/ha, Treatment A (water)
[4] = 16 g ai/ha, Treatment A (water), scale 0-100
[5] = 16 g ai/ha, Treatment B (YEME), scale 0-100
[6] = 16 g ai/ha, Treatment C (pCAO200SU1-FeS-B#9)
[7] = 16 g ai/ha, Treatment C (pCAO200SU1-FeS-B#9), scale 0-100
[8] = 32 g ai/ha, Treatment A (water)
[9] = 32 g ai/ha, Treatment A (water), scale 0-100
[10] = 32 g ai/ha, Treatment B (YEME), scale 0-100
[11] = 32 g ai/ha, Treatment C (pCAO200SU1-FeS-B#9)
[12] = 32 g ai/ha, Treatment C (pCAO200SU1-FeS-B#9), scale 0-100
[13] = 64 g ai/ha, Treatment A (water), scale 0-100
[14] = 64 g ai/ha, Treatment B (YEME), scale 0-100
[15] = 64 g ai/ha, Treatment C (pCAO200SU1-FeS-B#9), scale 0-100
[16] = 125 g ai/ha, Treatment A (water), scale 0-100
[17] = 125 g ai/ha, Treatment B (YEME), scale 0-100
[18] = 125 g ai/ha, Treatment C (pCAO200SU1-FeS-B#9), scale 0-100
[19] = 250 g ai/ha, Treatment A (water), scale 0-100, 100 = complete kill
[20] = 250 g ai/ha, Treatment B (YEME), scale 0-100
[21] = 250 g ai/ha, Treatment C (pCAO200SU1-FeS-B#9), scale 0-100

| SMILES | Mean Shoot Fresh Weights [2, 3] | Mean value of visual ratings [2, 4] | Mean Shoot Fresh Weights ([2]; 16 g ai/ha, Treatment B (YEME)) | Mean value of visual ratings [2, 5] | Mean Shoot Fresh Weights [2, 6] | Mean value of visual ratings [2, 7] | Mean Shoot Fresh Weights [2, 8] | Mean value of visual ratings [2, 9] | Mean Shoot Fresh Weights ([2]; 32 g ai/ha, Treatment B (YEME)) | Mean value of visual ratings [2, 10] | Mean Shoot Fresh Weights [2, 11] | Mean value of visual ratings [2, 12] | Mean value of visual ratings [2, 13] | Mean value of visual ratings [2, 14] | Mean value of visual ratings [2, 15] | Mean value of visual ratings [2, 16] | Mean value of visual ratings [2, 17] | Mean value of visual ratings [2, 18] | Mean value of visual ratings [2, 19] | Mean value of visual ratings [2, 20] | also measured |
| --- | --- | --- | --- | --- | --- | --- | --- | --- | --- | --- | --- | --- | --- | --- | --- | --- | --- | --- | --- | --- | --- |
| CCOC(=O)c1ccccc1S(=O)(=O)NC(=O)Nc1nc(O)cc(Cl)n1 [compound 10002, N-[(4-chloro-6-hydroxy-pyrimidin-2-yl)aminocarbonyl]-2-ethoxycarbonylbenzenesulfonamide] |  |  |  |  |  |  |  |  |  |  |  |  |  |  |  |  |  |  |  |  | metabolite production versus leaf tissue of pAGS112 plants ([1]; substrate 10001): more 10002 was produced |
| CCOC(=O)c1ccccc1S(=O)(=O)NC(=O)Nc1nc(Cl)cc(OC)n1 [compound 10001, N-[(4-chloro-6-methoxy-pyrimidin-2-yl)aminocarbonyl]-2-ethoxycarbonylbenzenesulfonamide] | 3.25 grams | 43.3 | 2.35 grams | 51.7 | 3.1 grams | 40 | 2.49 grams | 68.3 | 1.76 grams | 58.3 | 3.37 grams | 50 | 66.7 | 63.3 | 43.3 | 90 | 70 | 50 | 91.7 | 81.7 | visual injury, treatment C versus treatments A or B ([2]; 64, 125, and 250 g ai/ha): significantly less injured; Mean Shoot Fresh Weights ([2]; 64 g ai/ha, Treatment A (water)): 1.37 grams; Mean Shoot Fresh Weights ([2]; 64 g ai/ha, Treatment B (YEME)): 1.40 grams; Mean Shoot Fresh Weights ([2]; 64 g ai/ha, Treatment C (pCAO200SU1-FeS-B#9)): 2.94 grams; Shoot weight, dipped in pCAO200SU1-FeS-B#9 culture versus water or YEME ([2]; 125 g ai/ha): 2-3 times; Mean Shoot Fresh Weights ([2]; 125 g ai/ha, Treatment A (water)): 0.80 grams; Mean Shoot Fresh Weights ([2]; 125 g ai/ha, Treatment B (YEME)): 1.06 grams; Mean Shoot Fresh Weights ([2]; 125 g ai/ha, Treatment C (pCAO200SU1-FeS-B#9)): 2.72 grams; Shoot weight, dipped in pCAO200SU1-FeS-B#9 culture versus water or YEME ([2]; 250 g ai/ha): 3-4 times greater; Mean Shoot Fresh Weights ([2]; 250 g ai/ha, Treatment A (water)): 0.63 grams; Mean Shoot Fresh Weights ([2]; 250 g ai/ha, Treatment B (YEME)): 0.40 grams; Mean Shoot Fresh Weights ([2]; 250 g ai/ha, Treatment C (pCAO200SU1-FeS-B#9)): 2.41 grams; Mean value of visual ratings [2, 21]: 50.0; extent of metabolism versus leaf tissue of pAGS112 plants [1]: metabolized to a significantly greater extent |
| COC(=O)c1ccccc1S(=O)(=O)NC(=O)Nc1nc(C)cc(C)n1 [compound 10010, N-[(4,6-dimethylpyrimidin-2-yl)aminocarbonyl]-2-methoxycarbonylbenzenesulfonamide] | 1.28 grams | 70.0 | 1.58 grams | 63.3 | 2.10 grams | 60 | 0.65 grams | 93.3 | 1.60 grams | 66.7 | 1.79 grams | 56.7 | 90.0 | 83.3 | 86.7 | 91.7 | 83.3 | 76.7 | 95.0 | 86.7 | Visual Injury Ratings of individual transplanted tomatoes [2, 9]: 100,100,100; Visual Injury Ratings of individual transplanted tomatoes [2, 13]: 80,100,100; Visual Injury Ratings of individual transplanted tomatoes [2, 15]: 60,100,100; Visual Injury Ratings of individual transplanted tomatoes [2, 16]: 90,100,100; Visual Injury Ratings of individual transplanted tomatoes ([2]; 250 g ai/ha, Treatment A (water), scale 0-100): 90,100,100; Mean value of visual ratings [2, 21]: 85; visual injury across treatments A, B, C ([2]; all rates): injured to similar extents regardless of the treatment they received |
